Results taken from publication PMC9822051, “A Study on the Chemistry and Biological Activity of 26-Sulfur Analogs of Diosgenin: Synthesis of 26-Thiodiosgenin S-Mono- and Dioxides, and Their Alkyl Derivatives” (Molecules, 2022).
Values after ≈ are worked out from the molar mass of the structure shown. Values joined by “and” are separate entries in the source; they are usually repeats but may differ in a detail not shown here. Identical values can stand only once. Like-named read-outs stand apart in the source and are kept apart here.

Legend:
[1] = Cytotoxicity, resazurin, 72 h; assay type: cell-based, human; conditions: human
Protocol: (§1) The studied compounds were evaluated for cytotoxicity in human cancer cell lines (cervical carcinoma HeLa, chronic myelogenous leukemia K562 and breast adenocarcinoma MCF7) and normal human retina cells RPE-1 (ca. 5.0 × 10^4 cells·mL^−1) after 72 h of treatment using resazurin (Merck/MilliporeSigma, St. Louis, MO, USA) as described earlier for Calcein AM dye.

[2] = test system: E. coli ATCC 35218 membrane proteins (Trp^214 residues); test: Trp fluorescence quenching of bacterial membrane proteins (Stern-Volmer); assay type: binding, Escherichia coli; conditions: for Stern-Volmer constant KSV: compound 0.5–2.0 µM, PBS pH 7.4, λexc 295 nm, λem 350 nm; for quenching constant kq: kq = KSV/τ0
Source text: (§2) Based on fluorescence analysis, the Stern-Volmer plots were drawn (Figure 5) using equation given below (Equation (1)). (1) F0/F=1+KSV[Q] where: F0 and F are the Trp fluorescence without and in the presence of quencher (studied compounds), KSV—Stern-Volmer constant, [Q]—concentration of the quencher.
(§3) In order to check whether studied compounds form complexes with bacterial cells proteins, the quenching constants (kq) have been calculated using equation below (Equation (2)) and are presented in Table 3. (2) kq=KSV/τ0 where: kq—quenching constant, KSV—Stern-Volmer constant, τ0—fluorescence lifetime of fluorophore molecules.
(§4) Bacteria strains: S. aureus and E. coli grown overnight at 37 °C in Mueller Hinton (MH) broth with shaking at 200 rpm. Next, bacteria suspensions were centrifuged (2300× g, 15 min) and resuspended in PBS after removing the supernatant. For experiments, bacteria suspensions (OD600 = 0.1 in C = 10 mM PBS buffer, pH = 7.4) have been used in the presence (concentration range 0.5–2.0 µM) and without the studied compounds. The measurements were performed in quartz cuvette (1 cm × 1 cm). Fluorescence was monitored at the λexc. = 295 nm and λem. = 350 nm from tryptophan (Trp^214) residues in bacterial membrane proteins. The studies were carried out using Perkin-Elmer LS-55B (Perkin-Elmer, Pontyclun, UK) spectrofluorometer.

[3] = test system: Escherichia coli ATCC 35218; test: Antibacterial activity, broth microdilution (MIC/MBC); assay type: cell-based; conditions: E. coli ATCC 35218; for MIC: 37 °C, 24 h
Protocol: (§5) The antibacterial activity of tested compounds was assessed by monitoring the cell growth of Staphylococcus aureus 8325-4 and Escherichia coli ATCC 35218 using the broth microdilution method, conducted according to the National Committee for Clinical Laboratory Standards. First, compounds were dissolved in methanol and the solution was added to Mueller Hinton broth (MHB) for bacteria to give a final concentration of 2000 µg/mL. The samples were then serially two-fold diluted in bullion to obtain concentration ranging from 1000 to 0.12 μg/mL in 96-well microtiter plate with the final volumes of 100 μL. Next, 100 μL of bacteria suspension was injected into each well. The final bacteria cell concentration was 1 × 10^6 colony-forming units per ml (CFU/mL). The plates were incubated at 37 °C for 24 h. The MIC value was determined as the lowest concentration of an antibacterial agent that inhibited bacterial growth, as indicated by the absence of turbidity. The MBC value was determined as the lowest concentration of antibacterial agents for which no bacterial growth on the plates was observed.

[4] = test system: Staphylococcus aureus 8325-4; test: as above; assay type: cell-based; conditions: S. aureus 8325-4; for MIC: 37 °C, 24 h
Protocol: as §5

[5] = test system: S. aureus 8325-4 membrane proteins (Trp^214 residues); test: Trp fluorescence quenching of bacterial membrane proteins (Stern-Volmer); assay type: binding, Staphylococcus aureus; conditions: for Stern-Volmer constant KSV: compound 0.5–2.0 µM, PBS pH 7.4, λexc 295 nm, λem 350 nm; for quenching constant kq: kq = KSV/τ0
Source text: as §2, §3, §4

[6] = test system: lung cancer cell line A549; design: method as in PMID 33402081, PMID 23751199; conditions: cited from earlier work
[7] = test system: normal human retina cells RPE-1; test: Cytotoxicity, resazurin, 72 h; assay type: cell-based; conditions: RPE-1 normal cells
Protocol: as §1

cervical carcinoma HeLa = test: Cytotoxicity, resazurin, 72 h; assay type: cell-based, human
Protocol: as §1

[8] = test system: breast adenocarcinoma MCF7; test: Cytotoxicity, resazurin, 72 h; assay type: cell-based, human; conditions: MCF7, 72 h
Protocol: as §1

[9] = test system: chronic myelogenous leukemia K562; test: Cytotoxicity, resazurin, 72 h; assay type: cell-based, human; conditions: K562, 72 h
Protocol: as §1

[10] = K562 chronic myelogenous leukemia cells, K562, 72 h
[11] = MCF7 breast adenocarcinoma cells, MCF7, 72 h
[12] = RPE-1 normal retina cells, RPE-1 normal cells
[13] = Escherichia coli, ATCC35218, read-out: MIC
[14] = Escherichia coli, ATCC35218, read-out: MBC
[15] = Staphylococcus aureus, 83254, read-out: MIC
[16] = Staphylococcus aureus, 83254, read-out: MBC

Structure (SMILES) | IC50 at 72 h ([1]; HeLa cervical carcinoma cells) [µM] | IC50 at 72 h [1, 10] [µM] | IC50 at 72 h [1, 11] [µM] | IC50 at 72 h [1, 12] [µM] | melting point [°C] | Stern-Volmer constant KSV [2] | quenching constant kq [2] | MIC [3, 13] | MBC [3, 14] [µg/mL] | MIC [4, 15] | MBC [4, 16] [µg/mL] | Stern-Volmer constant KSV [5] | quenching constant kq [5] | also measured
CCC1C(C)CCC2(OC3CC4C5CC=C6CC(O)CCC6(C)C5CCC4(C)C3C2C)S1(=O)=O (stereo not drawn) [26-Ethylsulfone 12] | 44.1 ± 0.1 | > 50 | > 50 | > 50 | 210 to 212 |  |  |  |  |  |  |  |  | 
CC1CCC2(OC3CC4C5CC=C6CC(O)CCC6(C)C5CCC4(C)C3C2C)SC1 (stereo not drawn) [26-Thiodiosgenin (3), 26-thiodiosgenin] | > 50 | > 50 | > 50 | > 50 |  | 5.091 ± 0.152 10^4 M^−1 | 10.02 ± 0.28 10^12 M^−1s^−1 | 62.5 µg/mL and 145 µM | 125 (≈ 290 µM) | 1.95 µg/mL and 4.5 µM | 3.9 (≈ 9.06 µM) | 8.322 ± 0.142 10^4 M^−1 | 16.62 ± 0.23 10^12 M^−1s^−1 | MBC [3]: 125 µg/mL (≈ 290 µM); MIC [3]: 62.5 µg/mL (≈ 145 µM); MBC [4]: 3.9 µg/mL (≈ 9.06 µM); MIC [4]: 1.95 µg/mL (≈ 4.53 µM)
C[C@@H]1CC[C@]2(O[C@H]3C[C@H]4[C@@H]5CC=C6C[C@@H](O[C@@H]7O[C@H](CO)[C@@H](O[C@@H]8O[C@@H](C)[C@H](O)[C@@H](O)[C@H]8O)[C@H](O)[C@H]7O[C@@H]7O[C@@H](C)[C@H](O)[C@@H](O)[C@H]7O)CC[C@]6(C)[C@H]5CC[C@]4(C)[C@H]3[C@@H]2C)SC1 [26-thiodioscine] |  |  |  |  |  |  |  |  |  |  |  |  |  | IC50 [6]: 3.72 µM
CC1CCC2(CC1)O[C@H]1C[C@H]3[C@@H]4CC[C@H]5C[C@@H](O)CC[C@]5(C)[C@H]4CC[C@]3(C)[C@H]1[C@@H]2C (stereo partly drawn) [Carbaanalog 5] | 38.2 ± 0.8 | > 50 | > 50 | > 50 |  | 2.021 ± 0.198 10^4 M^−1 | 4.04 ± 0.45 10^12 M^−1s^−1 | 500 µg/mL and 1210 µM | 1000 (≈ 2410 µM) | 7.8 µg/mL and 18.9 µM | 31.2 (≈ 75.4 µM) | 1.258 ± 0.189 10^4 M^−1 | 2.52 ± 0.32 10^12 M^−1s^−1 | MIC [3]: 500 µg/mL (≈ 1210 µM); MIC [4]: 7.8 µg/mL (≈ 18.8 µM)
CC1CCC2(OC3CC4C5CC=C6CC(O)CCC6(C)C5CCC4(C)C3C2C)[S+]([O-])C1(C)C (stereo not drawn) [Dimethylsulfoxide 10] | 32.2 ± 1.7 | > 50 | > 50 | > 50 |  |  |  |  |  |  |  |  |  | 
C[C@@H]1CC[C@@]2(OC1)O[C@H]1C[C@H]3[C@@H]4CC=C5C[C@@H](O)CC[C@]5(C)[C@H]4CC[C@]3(C)[C@H]1[C@@H]2C [Diosgenin (1), diosgenin] |  |  |  |  |  | 3.384 ± 0.165 10^4 M^−1 | 6.76 ± 0.35 10^12 M^−1s^−1 | 250 µg/mL and 603 µM | 500 (≈ 1210 µM) | 3.9 µg/mL and 9.4 µM | 15.6 (≈ 37.7 µM) | 5.441 ± 0.131 10^4 M^−1 | 10.93 ± 0.27 10^12 M^−1s^−1 | IC50 at 72 h ([1]; HeLa): > 50 µM; IC50 at 72 h ([1]; RPE-1 normal cells): > 50 µM; IC50 at 72 h ([1]; K562, 72 h): > 50 µM; IC50 at 72 h ([1]; MCF7, 72 h): > 50 µM; MBC [3]: 500 µg/mL (≈ 1210 µM); MIC [3]: 250 µg/mL (≈ 603 µM); MBC [4]: 15.615 µg/mL (≈ 37.7 µM); MIC [4]: 3.9 µg/mL (≈ 9.41 µM)
CC1CCC2(OC3CC4C5CC6OC67CC(O)CCC7(C)C5CCC4(C)C3C2C)S(=O)(=O)C1 (stereo not drawn) [Epoxysulfone 9] | > 50 | > 50 | > 50 | > 50 |  |  |  |  |  |  |  |  |  | 
CC1CCC2(OC3CC4C5CC=C6CC(O)CCC6(C)C5CCC4(C)C3C2C)S(=O)(=O)C1 (stereo not drawn) [Sulfone 8] | > 50 | > 50 | > 50 | > 50 | 205 to 207 | 2.962 ± 0.105 10^4 M^−1 | 5.92 ± 0.16 10^12 M^−1s^−1 | 125 µg/mL and 270 µM | 250 (≈ 540 µM) | 3.9 µg/mL and 8.4 µM | 7.8 (≈ 16.9 µM) | 2.915 ± 0.175 10^4 M^−1 | 5.82 ± 0.31 10^12 M^−1s^−1 | 
CC1CCC2(OC3CC4C5CC=C6CC(O)CCC6(C)C5CCC4(C)C3C2C)[S+]([O-])C1 (stereo not drawn) [Sulfoxide 6] | > 50 | > 50 | > 50 | > 50 | 143 to 146 | 1.456 ± 0.201 10^4 M^−1 | 2.92 ± 0.36 10^12 M^−1s^−1 | 125 µg/mL and 280 µM | 250 (≈ 560 µM) | 3.9 µg/mL and 8.7 µM | 7.8 (≈ 17.5 µM) | 4.051 ± 0.170 10^4 M^−1 | 8.14 ± 0.35 10^12 M^−1s^−1 | 
CC1CCC2(OC3CC4C5CC=C6CC(O)CCC6(C)C5CCC4(C)C3C2C)[S+]([O-])C1 (stereo not drawn) [Sulfoxide 7] |  |  |  |  | 165 to 166 |  |  |  |  |  |  |  |  | IC50 [7]: > 50 µM; IC50 (cervical carcinoma HeLa): 34.3 ± 3 µM; IC50 [8]: > 50 µM; IC50 [9]: > 50 µM
C[C@@H]1CC[C@@]2(OC1)O[C@H]1C[C@H]3[C@@H]4CC=C5C[C@@H](O[C@@H]6O[C@H](CO)[C@@H](O[C@@H]7O[C@@H](C)[C@H](O)[C@@H](O)[C@H]7O)[C@H](O)[C@H]6O[C@@H]6O[C@@H](C)[C@H](O)[C@@H](O)[C@H]6O)CC[C@]5(C)[C@H]4CC[C@]3(C)[C@H]1[C@@H]2C [dioscine] |  |  |  |  |  |  |  |  |  |  |  |  |  | IC50 [6]: 4.02 µM
CC1CCC2(OC3CC4C5CC=C6CC(O)CCC6(C)C5CCC4(C)C3C2C)S(=O)(=O)C1C (stereo not drawn) [α-Methylsulfone 11] | 92.3 | > 50 | > 50 | > 50 | 225 to 227 | 2.470 ± 0.101 10^4 M^−1 | 4.94 ± 0.17 10^12 M^−1s^−1 | 125 µg/mL and 262 µM | 250 (≈ 524 µM) | 3.9 µg/mL and 8.2 µM | 7.8 (≈ 16.4 µM) | 3.442 ± 0.168 10^4 M^−1 | 6.84 ± 0.34 10^12 M^−1s^−1 | 
